# Assay results taken from patent US20050181042A1, “Composition for oral or rectal administration” (priority 2002, published 2005).
# Test: Plasma gentamycin after oral administration to NZW rabbits
# Assay type: in vivo
# Conditions: for Plasma concentration of gentamycin: n = 3
# Description: NZW rabbits were used in all experiments and all tablet/capsules were administered orally. The animals were given four, five or six tablets/capsules followed by water until they had swallowed the tablets/capsules. The animals were deprived of food for about 18 hours before dosing. […] The blood samples were centrifuged for 10 min at approximately 2000×g to obtain plasma for determination of gentamycin by EMIT 2000 TDM assay on a Hitachi 704 Analyzer (Table 10).
# The area under the curve (AUC) was calculated by the linear trapezoidal rule to the last blood concentration. Two different doses (5 or 10 mg/kg bodyweight) were used during the experiments. For comparison of the results of the different formulations the AUC was divided by the respective dose of gentamycin. The obtained plasma concentration for pure gentamycin was set to 1. The obtained plasma concentrations for gentamycin in the three different lipid formulations were then expressed as multiple factors of increasing bioabsorption.
substance,measurement,setting,value
Gentamycin sulphate [Gentamycin 1],"Correlation factor (multiple of bioabsorption, pure gentamycin = 1)",dose-adjusted AUC relative to Gentamycin 1,1
same,Plasma concentration of gentamycin,"oral, dose 10 mg/kg, 0 hrs",0 microgram/mL
same,Plasma concentration of gentamycin,"oral, dose 10 mg/kg, 0.5 hrs",0.01 microgram/mL
same,Plasma concentration of gentamycin,"oral, dose 10 mg/kg, 1 hr",0.01 microgram/mL
same,Plasma concentration of gentamycin,"oral, dose 10 mg/kg, 2 hrs",0.02 microgram/mL
same,Plasma concentration of gentamycin,"oral, dose 10 mg/kg, 4 hrs",0.01 microgram/mL
same,Plasma concentration of gentamycin,"oral, dose 10 mg/kg, 6 hrs",0.03 microgram/mL
same,AUC,"oral, dose 10 mg/kg, linear trapezoidal rule to last blood concentration (6 hrs)",0.09
